For this experiment, the system named is ZP3-specific TCD8. The experiment can be described thus: ELISPOT IFNγ of spleen TCD8 stimulated ex vivo with APC pulsed with each peptide separately. The following applies: mice immunized with pool A+B, restimulation with each peptide separately. In kind it is in vivo, HLA-A2/DR1 transgenic mice. The protocol:
HLA-A2/DR1 transgenic mice received three subcutaneous administrations of peptides pool and GM-CSF/CpG adjuvant as follow:
A first group (group 1) of mice received 100 μg/mice of a pool of peptides A+B (SEQ ID NO: 1, 2, 4, 5, 6, 10, 12, 13, 15 and 17) and GM-CSF adjuvant at Day 0 (D0). At D1, CpG wad injected. 100 μg/mice of pool of peptides A+B was injected at D14 and D30. Mice were sacrificed and analyzed at D40.
The ZP3-specific TCD8 response was measured by ex vivo stimulation of TCD8 from spleen of mice with APC pulsed with peptides (each peptides separately). The number of activated TCD8 cells was measured by ELISPOT IFNγ.

With “FTVDVFHFA (Peptide of human ZP3) [Peptide 5, hZP3 fragment, position 263]”, the “ZP3-specific TCD8 response” value (FIG. 2, listed as SEQ ID NO: 5) was “strong specific TCD8 response (statistically significant)”. With “LRLMEENWNA (Peptide of human ZP3) [Peptide 6, hZP3 fragment, position 174]”, the “ZP3-specific TCD8 response” value (FIG. 2, listed as SEQ ID NO: 6) was “strong specific TCD8 response (statistically significant)”.

As for “NMIYITCHL (Peptide of human ZP3) [Peptide 13, hZP3 fragment, position 276]”, the “ZP3-specific TCD8 response” value (FIG. 2, listed as SEQ ID NO: 13) is listed as “strong specific TCD8 response (statistically significant)”.

Values taken from patent US20210317165A1, “ZP3 FRAGMENTS IN IMMUNOTHERAPY OF OVARIAN CANCER” (LABORATOIRE HRA-PHARMA, priority 2018, published 2021).
